The results in this text go back to patent US20130274174A1, “THERAPEUTIC COMBINATION OF DAPTOMYCIN AND PROTEIN SYNTHESIS INHIBITOR ANTIBIOTIC, AND METHODS OF USE” (priority 2011, published 2013).

This experiment concerns Staphylococcus aureus 100 (ATCC 29213). Nature of the experiment: FIC checkerboard broth microdilution, control combinations. The format is cell-based. The settings on record: ATCC29213, agent alone, repeated determinations by date. The procedure:
Test articles of stock solutions of daptomycin (Cubist, lot MCB2007) and TR-700 were prepared at 40 times the final target concentration in DMSO:water (1:1). DMSO was added first, the solutions were allowed to stand for 60 minutes and then the water was added. […] The final DMSO concentration was 2.5%. The final drug concentrations in the FIC assay plates were set to bracket the MIC value of each test article for each test organism, unless the strain was totally resistant to the test article.
The test organisms were originally received from clinical sources, or from the American Type Culture Collection. […] Aliquots were then frozen at −80° C.
The broth was prepared at 1.05× normal weight/volume to offset the 5% volume of the drugs in the final test plates.
Antimicrob. Agents Chemother.
These plates were used to prepare the drug “mother plates” which provided the serial drug dilutions for the drug combination plates.
The “daughter plates” were loaded with 180 μL of test medium using the Multidrop 384. Then, the Multimek 96 was used to transfer 10 μL of drug solution from each well of the drug combination mother plate to each corresponding well of the daughter plate in a single step.
On the technique in general: Broth dilution looks for growth in wells or tubes with falling amounts of substance.

As usually defined, the MIC is the least concentration at which growth counts as inhibited. As to `O=C(O)[C@H]1/C(=C/CO)O[C@@H]2CC(=O)N21` [Clavulanate], the minimal inhibitory concentration (MIC) was found to be 16 µg/mL.
